# Measured values published in publication PMC5660261 (Frontiers in Pharmacology, 2017).
# What was measured:
# human CB2R [1] = target: T1, human CB2R (Homo sapiens, UniProt P34972); assay: HTRF (Tag-lite) competition binding of red CB2R ligand in living HEK-293T cells expressing SNAP-CB2R; settings: 100 nM red CB2R ligand, low nanomolar CBD concentrations
# T1 construct: host or cells: HEK-293T, transient transfection, living cells
# human GPR55 = target: T2, human GPR55 (Homo sapiens, UniProt Q9Y2T6); assay: Forskolin-induced intracellular cAMP determination in HEK-293T cells expressing GPR55; format: cell-based
# T2 construct: expressed in transfected cells; host or cells: HEK-293T, transient transfection
# Description: Two hours before initiating the experiment, growth medium was replaced by serum-free DMEM. Then, HEK-293T cells transiently expressing CB2R or GPR55 were detached and resuspended in growing medium containing 50 μM zardaverine and plated in 384-well microplates (2,500 cells/well), pretreated (15 min) with the corresponding antagonists—or vehicle—and stimulated with agonists (15 min) before adding 0.5 μM forskolin or vehicle. Readings were performed after 15 min of incubation at 25°C. HTRF measures were performed using the Lance Ultra cAMP kit (PerkinElmer, Waltham, MA, United States). Fluorescence at 665 nm was analyzed on a PHERAstar Flagship microplate reader equipped with an HTRF optical module (BMG Lab Technologies, Offenburg, Germany).
# human CB2R [2] = target: T1, human CB2R; assay: Forskolin-induced intracellular cAMP determination in HEK-293T cells expressing CB2R; format: cell-based
# human CB2R [3] = target: T1, human CB2R; assay: HTRF (Tag-lite) saturation binding of red CB2R ligand in living HEK-293T cells expressing SNAP-CB2R
# T1 sequence (P34972 whole entry): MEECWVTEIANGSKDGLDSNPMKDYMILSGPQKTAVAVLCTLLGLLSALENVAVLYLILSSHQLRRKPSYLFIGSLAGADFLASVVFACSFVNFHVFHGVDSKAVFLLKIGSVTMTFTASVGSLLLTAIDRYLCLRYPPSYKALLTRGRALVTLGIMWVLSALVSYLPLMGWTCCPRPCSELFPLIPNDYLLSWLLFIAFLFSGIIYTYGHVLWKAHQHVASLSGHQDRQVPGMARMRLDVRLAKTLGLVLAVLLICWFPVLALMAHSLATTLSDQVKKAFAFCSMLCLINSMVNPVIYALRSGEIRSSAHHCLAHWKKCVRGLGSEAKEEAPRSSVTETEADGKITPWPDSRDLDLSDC
# T2 sequence (Q9Y2T6 whole entry): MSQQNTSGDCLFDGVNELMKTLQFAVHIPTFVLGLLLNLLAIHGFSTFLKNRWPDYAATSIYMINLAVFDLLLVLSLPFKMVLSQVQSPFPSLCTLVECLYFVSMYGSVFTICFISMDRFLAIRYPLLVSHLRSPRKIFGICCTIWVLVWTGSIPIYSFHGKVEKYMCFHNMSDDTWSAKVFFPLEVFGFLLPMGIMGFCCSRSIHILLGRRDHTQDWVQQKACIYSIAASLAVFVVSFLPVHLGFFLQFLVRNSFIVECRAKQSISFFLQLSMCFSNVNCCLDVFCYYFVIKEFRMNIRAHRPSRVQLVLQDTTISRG
molecule,measurement,setting,value
"C=C(C)[C@@H]1CCC(C)=C[C@H]1c1c(O)cc(CCCCC)cc1O [CBD, cannabidiol]",reduction of fluorescent agonist binding,human CB2R [1],circa 25%
same,cAMP response to combined treatment with CBD and JWH133,"human GPR55; 100 nM JWH133, HEK-293T transiently transfected with GPR55",not significantly different than that achieved by CBD alone
same,cAMP signal of compound alone,human GPR55; HEK-293T cells expressing human GPR55,results were similar to those in cells expressing the CB2R
same,G-protein-coupled signal (cAMP) of compound alone,"human CB2R [2]; concentration range 1–1,000 nM, no agonist, HEK-293T cells expressing human CB2R",did not significantly engage any G-protein-coupled signal
CCCC(C)(C)c1ccc2c(c1)OC(C)(C)[C@@H]1CC=C(C)C[C@@H]21 [JWH133],Agonist-induced reduction in cAMP,"human CB2R [2]; 100 nM JWH133, data given in percentage of the 500 nM forskolin-induced cAMP concentration",31 ± 4
SR144528,effect on maximum binding (Bmax) of red CB2R ligand,human CB2R [3],reduced Bmax values
